In data set [1] the target is T1, hα7-wt nAChR-expressing GH4Cl cells (Homo sapiens, UniProt P36544).
T1 construct: expressed in transfected cells
Briefly: Patch-clamp current recording (whole-cell), potentiation of choline 1 mM response, PAM type. The format is cell-based. Further details: key to Pam type: Type 0 compounds minimally enhance the effect size of the current elicited by 1 mM choline.; Type 1 compounds enhance the effect size of the current elicited by 1 mM choline but minimally alter the kinetics of the receptor.; Type 2 compounds enhance the effect size of the current elicited by 1 mM choline while reducing the rate and/or the extent of desensitization.; Type 3 compounds enhance the effect size of the current elicited by 1 mM choline. When tested at higher concentrations up to 10 μM they completely inhibit desensitization, in particular a 1 mM choline application of 250 milliseconds.; Type 4 compounds allow for an initial desensitization of the receptor followed by a re-opening of the receptor during agonist application. The settings on record: for EC50: according to Ex. D.2, "<5" = no top plateau reached at maximal concentration, read-out: Potency (pEC50) (converted); for Pam type: patch-clamp current recording, 1 mM choline. The protocol:
The compounds of the present invention are classified as type 1-4, based on qualitative kinetic properties, as determined by whole-cell voltage-clamp recordings. This classification is based on the effect of an α7 PAM compound, as described hereinbefore, on the signal elicited by an agonist application. In particular, said agonist is choline at a concentration of 1 mM. In a preferred experimental setting, said α7 PAM compound and choline are simultaneously applied to the cell, as described hereinafter. Desensitization is defined as the closure of the receptor upon activation during the application of the agonist in whole-cell voltage-clamp electrophysiology measurements seen as the reduction of the […] current after initial activation by the agonist.
The definition of the PAM types 1-4 is described hereinafter: • Type 0 compounds minimally enhance the effect size of the current elicited by 1 mM choline. • Type 1 compounds enhance the effect size of the current elicited by 1 mM choline but minimally alter the kinetics of the receptor. In particular, the rate and the extent of desensitization, elicited by the agonist, is not affected. The compound-modulated response to 1 mM choline, therefore, is a close to linear scaling of the 1 mM choline response in absence of the α7 PAM compound. • Type 2 compounds enhance the effect size of the current elicited by 1 mM choline while reducing the rate and/or the extent of desensitization. • Type 3 compounds enhance the effect size of the current elicited by 1 mM choline. […] At low-potency concentrations of the α7 PAM compound, the agonist-induced activation, which is followed by desensitization, can still be separated from the compound-induced re-opening as an initial inward current-maximum. At higher potency concentrations of the α7 PAM compound, the re-opening occurs faster than the closure due to desensitization so that the initial current-maximum disappears.
Patch-clamp Current Recording
Patch-clamp recording from mammalian cells has provided a powerful means of assessing the function of membrane-bound proteins thought to be subunits of ligand-gated ion channels. Activation of such proteins by endogenous or exogenous ligands cause opening of a pore associated with the receptor through which ions flow down their electrochemical gradient. In the case of the hα7-wt nAChR-expressing GH4Cl recombinant cell line the preferential permeability to calcium of this receptor means that calcium flows into the cell upon activation by ACh, choline and other nicotinic ligands giving rise to a calcium current. Since this receptor rapidly desensitizes in the presence of agonist it is important an application system is used which is capable of very rapid switching of solutions (<100 ms) to prevent partial or full desensitisation of receptor responses coincident with the time of agonist application. Consequently, a second convenient technique to assess the enhancement of nicotinic efficacy is patch-clamp recording from hα7-wt nAChR-expressing GH4Cl cells coupled with a rapid-application system.
• a) Assay buffers • The external recording solution consisted of 152 mM NaCl, 5 mM KCl, 1 mM MgCl2, 1 mM Calcium, 10 mM HEPES; pH 7.3. The internal recording solution consisted of 140 mM CsCl, 10 mM HEPES, 10 mM EGTA, 1 mM MgCl2, pH 7.3. • b) Patch-clamp recording was carried out using a Patch-clamp amplifier (Multiclamp 700A, Axon Instruments, Calif., USA). hα7-wt nAChR-expressing GH4Cl cells were patch-clamp in the whole cell configuration (Hamill et al, 1981) with a borosilicate glass electrode of 1.5-3 MΩ tip resistance when filled with the internal recording solution. Recordings were made on cells with membrane resistance >500 MΩ and more preferably 1GΩ and series resistance <15 MΩ with at least 60% series resistance compensation. […]

T1 sequence (P36544 23-502): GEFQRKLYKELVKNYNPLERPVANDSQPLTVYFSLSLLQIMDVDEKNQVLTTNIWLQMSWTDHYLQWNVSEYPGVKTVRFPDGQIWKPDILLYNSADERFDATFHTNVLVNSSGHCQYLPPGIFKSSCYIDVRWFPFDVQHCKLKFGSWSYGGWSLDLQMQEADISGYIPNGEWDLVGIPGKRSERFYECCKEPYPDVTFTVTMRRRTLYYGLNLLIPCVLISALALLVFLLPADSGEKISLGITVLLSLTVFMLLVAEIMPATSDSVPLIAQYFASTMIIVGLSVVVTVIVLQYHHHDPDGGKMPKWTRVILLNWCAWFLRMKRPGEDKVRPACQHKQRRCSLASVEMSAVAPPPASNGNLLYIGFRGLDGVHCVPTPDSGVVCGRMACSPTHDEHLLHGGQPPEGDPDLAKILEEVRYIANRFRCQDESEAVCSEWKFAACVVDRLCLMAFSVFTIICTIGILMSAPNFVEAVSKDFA

On to `COc1ncccc1-n1nc(Nc2cccc(OC(F)(F)F)c2)nc1CCC(=O)N(C)C` [E4, 1-(2-Methoxy-3-pyridinyl)-N,N-dimethyl-3-[[3-(trifluoromethoxy)phenyl]amino]-1H-1,2,4-triazole-5-propanamide], for which the melting point amounted to 166.7 °C. Besides, the EC50 in data set [1] was 3800 nM.

`CNc1ncccc1-n1nc(Nc2cccc(OC(F)(F)F)c2)nc1CCC(=O)N(C)C` [E6, N,N-Dimethyl-1-[2-(methylamino)-3-pyridinyl]-3-[[3-(trifluoromethoxy)phenyl]amino]-1H-1,2,4-triazole-5-propanamide] displayed a melting point of 212.8 °C. Also, in data set [1], the EC50 was 851 nM.

In the case of `Cc1cc(-n2nc(Nc3ccc(F)c(C(F)(F)F)c3)nc2CCCO)ccn1` [E7, 3-[[4-Fluoro-3-(trifluoromethyl)phenyl]amino]-1-(2-methyl-4-pyridinyl)-1H-1,2,4-triazole-5-propanol], the melting point came to 197.6 °C. For the same compound, in data set [1], the EC50 is 1000 nM and the Pam type was 2.

For `Cc1cc(-n2nc(Nc3ccc(F)c(C(F)(F)F)c3)nc2CCCF)ccn1` [E8, 5-(3-Fluoropropyl)-N-[4-fluoro-3-(trifluoromethyl)phenyl]-1-(2-methyl-4-pyridinyl)-1H-1,2,4-triazol-3-amine], the melting point came out at 191.5 °C. In data set [1], the EC50 was 513 nM and the Pam type stood at 0.

In turn, `Cc1cc(-n2nc(Nc3ccc(F)c(C(F)(F)F)c3)nc2CCCCl)ccn1` [E9, 5-(3-chloropropyl)-N-[4-fluoro-3-(trifluoromethyl)phenyl]-1-(2-methyl-4-pyridinyl)-1H-1,2,4-triazol-3-amine] registered a melting point of 182.8 °C. Further, the EC50 in data set [1] is 437 nM.

Compound `Cc1cc(-n2nc(Nc3ccc(F)c(C(F)(F)F)c3)nc2CC(C)O)ccn1` (stereo not drawn) [E10, 3-[[4-Fluoro-3-(trifluoromethyl)phenyl]amino]-alpha-methyl-1-(2-methyl-4-pyridinyl)-, (alphaS)-1H-1,2,4-triazole-5-ethanol] registered a melting point of 192.7 °C. Moreover, in data set [1], the EC50 is 1050 nM and the Pam type is listed as 2.

Take `COCCCc1nc(Nc2ccc(F)c(C(F)(F)F)c2)nn1-c1ccncc1Cl` [E12, 1-(3-Chloro-4-pyridinyl)-N-[4-fluoro-3-(trifluoromethyl)phenyl]-5-(3-methoxypropyl)-1H-1,2,4-triazol-3-amine]: the melting point came out at 105.3 °C. In addition, the EC50 in data set [1] was 2240 nM.

`COCCc1nc(Nc2ccc(F)c(C(F)(F)F)c2)nn1-c1ccnc(C)c1` [E13] displayed a melting point of 170.4 °C. Besides, in data set [1], the EC50 was 240 nM and the Pam type was found to be 0.

`OCCCc1nc(Nc2ccc(F)c(C(F)(F)F)c2)nn1-c1ccncc1Cl` [E14]: the melting point was determined as 152.9 °C. Moreover, the EC50 in data set [1] was 3980 nM.

For `COCCCc1nc(Nc2ccc(F)c(C(F)(F)F)c2)nn1-c1ccnc(C)c1` [E15], the melting point was 141.4 °C. Moreover, in data set [1], the EC50 was 110 nM and the Pam type is listed as 0.

With `C[C@H](O)Cc1nc(Nc2ccc(F)c(F)c2)nn1-c1cccc(F)c1` [E17], the melting point is 177.1 °C. The EC50 in data set [1] was 3550 nM.

For the compound `C[C@H](O)Cc1nc(Nc2ccc(F)c(C(F)(F)F)c2)nn1-c1cccc(F)c1` [E18], the melting point was 161 °C. For the same compound, the EC50 in data set [1] was 3310 nM.

As for `C[C@H](O)Cc1nc(Nc2ccc(F)c(C(F)(F)F)c2)nn1-c1ccc(F)cc1` [E20], the melting point is 170.4 °C. Besides, in data set [1], the EC50 was 4470 nM.

The compound `COc1ccc(-n2nc(Nc3ccc(F)c(F)c3)nc2C[C@H](C)O)cc1` [E21] yielded a melting point of 181.4 °C. In addition, in data set [1], the EC50 is 1780 nM and the Pam type is 1.

Compound `COc1ccc(-n2nc(Nc3ccc(F)c(C(F)(F)F)c3)nc2C[C@H](C)O)cc1` [E22] came in with a melting point of 188.7 °C. Moreover, in data set [1], the EC50 was 851 nM and the Pam type was 0.

Take `Cc1cc(-n2nc(Nc3cccc(Cl)c3)nc2C[C@H](C)O)ccn1` [E23]: the melting point worked out at 185 °C. In addition, the EC50 in data set [1] is 2190 nM.

For `C[C@H](O)Cc1nc(Nc2ccc(F)c(C(F)(F)F)c2)nn1-c1ccncc1Cl` [E25], the melting point worked out at 150.3 °C. Moreover, in data set [1], the EC50 was 4790 nM and the Pam type was determined as 2.

As to `CC[C@H](O)Cc1nc(Nc2ccc(F)c(F)c2)nn1-c1cccc(F)c1` [E27], the melting point turned out to be 158.1 °C. In data set [1], the EC50 is 1910 nM and the Pam type is reported as 1.

Compound `CC[C@H](O)Cc1nc(Nc2ccc(F)c(F)c2)nn1-c1ccc(F)cc1` [E28] showed a melting point of 157.3 °C. Besides, in data set [1], the EC50 is 1910 nM and the Pam type was found to be 1.

Turning to `CC[C@H](O)Cc1nc(Nc2ccc(F)c(F)c2)nn1-c1ccc(OC)cc1` [E29], the melting point was determined as 117.6 °C. Also, in data set [1], the EC50 was 1150 nM and the Pam type was determined as 1.

As to `CC[C@H](O)Cc1nc(Nc2ccc(F)c(F)c2)nn1-c1ccnc(C)c1` [E30], the melting point worked out at 171.1 °C. Besides, in data set [1], the EC50 was 676 nM and the Pam type is 2.

Regarding `Cc1cc(-n2nc(Nc3ccc(F)c(C(F)(F)F)c3)nc2C(C)CO)ccn1` (centres unmarked) [E31], the melting point was 181.9 °C. Further, in data set [1], the EC50 was 2240 nM and the Pam type is reported as 2.

`CC[C@H](O)Cc1nc(Nc2cc(F)cc(OC)c2)nn1-c1cc(C)nc(C)c1` [E190, (alphaS)-1-(2,6-dimethyl-4-pyridinyl)-alpha-ethyl-3-[(3-fluoro-5-methoxyphenyl)amino]-1H-1,2,4-triazole-5-ethanol]: in data set [1], the EC50 is 398 nM and the Pam type was found to be 2.

Regarding `CC[C@H](O)Cc1nc(Nc2ccc(OC)cc2)nn1-c1cc(C)nc(C)c1` [E203], in data set [1], the EC50 is 1350 nM and the Pam type was determined as 2.

In the case of `CC[C@H](O)Cc1nc(Nc2cccc(C(F)(F)F)c2)nn1-c1ccnc(C)c1` [E204], in data set [1], the EC50 was 562 nM and the Pam type turned out to be 0.

On to `CC[C@H](O)Cc1nc(Nc2cc(Cl)cc(OC)c2)nn1-c1cc(C)nc(C)c1` [E205, (alphaS)-3-[(3-chloro-5-methoxyphenyl)amino]-1-(2,6-dimethyl-4-pyridinyl)-alpha-ethyl-1H-1,2,4-triazole-5-ethanol], for which, in data set [1], the EC50 was 155 nM and the Pam type came out at 2.

As for `CC[C@H](O)Cc1nc(Nc2cc(Cl)cc(OC)c2)nn1-c1ccnc(C)c1` [E206], in data set [1], the EC50 is 170 nM and the Pam type amounted to 4.

As for `CNC(=O)Cc1nc(Nc2ccc(F)c(F)c2F)nn1-c1cc(C)nc(C)c1` [E209], in data set [1], the EC50 is 724 nM and the Pam type was determined as 2.

`Cc1cc(-n2nc(Nc3cccc(C(F)(F)F)c3F)nc2CC(=O)NC2CC2)cc(C)n1` [E257, N-Cyclopropyl-1-(2,6-dimethyl-4-pyridinyl)-3-[[2-fluoro-3-(trifluoromethyl)phenyl]amino]-1H-1,2,4-triazole-5-acetamide] gave a melting point of 244.4 °C.

Turning to `Cc1cc(-n2nc(Nc3cc(F)c(F)c(F)c3)nc2CCC(=O)N(C)C)cc(C)n1` [E264], the EC50 in data set [1] is about 28.8 nM.

(Values after patent US8778974B2, “Trisubstituted 1,2,4 triazoles” (Janssen Pharmaceutica NV, priority 2008, dated 2014).)
